# From PMC8073777, “Design, Synthesis, Biological Evaluation and In Silico Studies of Pyrazole-Based NH2-Acyl Oseltamivir Analogues as Potent Neuraminidase Inhibitors” (Pharmaceuticals, 2021)
# Target: A/H3N2 influenza NA (Influenza A virus (H3N2), UniProt Q91IQ5)
# Assay type: biochemical, A/H3N2 influenza virus (clinical isolate from Hong Kong)
# Conditions: 10 µM
row,Compound,Inhibitory rate against A/H3N2 influenza NA [%]
1,"CCC(CC)O[C@@H]1C=C(C(=O)O)C[C@H](NC(=O)c2cc(-c3ccc(Cl)cc3)nn2CC2CCCCC2)[C@H]1NC(C)=O [Compound 16c, (3R,4R,5S)-4-acetamido-5-(3-(4-chlorophenyl)-1-(cyclohexylmethyl)-1H-pyrazole-5-carboxamido)-3-(pentan-3-yloxy) cyclohex-1-ene-1-carboxylic acid]",48.50
2,"CCC(CC)O[C@@H]1C=C(C(=O)O)C[C@H](NC(=O)c2cc(C3CC3)n(-c3ccccc3)n2)[C@H]1NC(C)=O [Compound 24a, (3R,4R,5S)-4-acetamido-5-(5-cyclopropyl-1-phenyl-1H-pyrazole-3-carboxamido)-3-(pentan-3-yloxy) cyclohex-1-ene-1-carboxylic acid]",30.57
3,"CCC(CC)O[C@@H]1C=C(C(=O)O)C[C@H](NC(=O)c2cc(C3CC3)n(-c3ccccc3C)n2)[C@H]1NC(C)=O [Compound 24b, (3R,4R,5S)-4-acetamido-5-(5-cyclopropyl-1-(o-tolyl)-1H-pyrazole-3-carboxamido)-3-(pentan-3-yloxy) cyclohex-1-ene-1-carboxylic acid]",60.91
4,"CCC(CC)O[C@@H]1C=C(C(=O)O)C[C@H](NC(=O)c2cc(C3CC3)n(-c3cccc(C)c3)n2)[C@H]1NC(C)=O [Compound 24c, (3R,4R,5S)-4-acetamido-5-(5-cyclopropyl-1-(m-tolyl)-1H-pyrazole-3-carboxamido)-3-(pentan-3-yloxy) cyclohex-1-ene-1-carboxylic acid]",34.75
5,"CCC(CC)O[C@@H]1C=C(C(=O)O)C[C@H](NC(=O)c2cc(C3CC3)n(-c3ccc(Br)cc3)n2)[C@H]1NC(C)=O [Compound 24d, (3R,4R,5S)-4-acetamido-5-(1-(4-bromophenyl)-5-cyclopropyl-1H-pyrazole-3-carboxamido)-3-(pentan-3-yloxy) cyclohex-1-ene-1-carboxylic acid]",42.68
6,"CCC(CC)O[C@@H]1C=C(C(=O)O)C[C@H](NC(=O)c2cc(C3CC3)n(-c3ccc(C(F)(F)F)cc3)n2)[C@H]1NC(C)=O [Compound 24e, (3R,4R,5S)-4-acetamido-5-(5-cyclopropyl-1-(4-(trifluoromethyl)phenyl)-1H-pyrazole-3-carboxamido)-3-(pentan-3-yloxy) cyclohex-1-ene-1-carboxylic acid]",44.47
7,"CCC(CC)O[C@@H]1C=C(C(=O)O)C[C@H](NC(=O)c2cc(C3CC3)nn2-c2ccccc2)[C@H]1NC(C)=O [Compound 26a, (3R,4R,5S)-4-acetamido-5-(3-cyclopropyl-1-phenyl-1H-pyrazole-5-carboxamido)-3-(pentan-3-yloxy) cyclohex-1-ene-1-carboxylic acid]",30.41
8,"CCC(CC)O[C@@H]1C=C(C(=O)O)C[C@H](NC(=O)c2cc(C3CC3)nn2-c2ccccc2C)[C@H]1NC(C)=O [Compound 26b, (3R,4R,5S)-4-acetamido-5-(3-cyclopropyl-1-(o-tolyl)-1H-pyrazole-5-carboxamido)-3-(pentan-3-yloxy) cyclohex-1-ene-1-carboxylic acid]",72.80
9,"CCC(CC)O[C@@H]1C=C(C(=O)O)C[C@H](NC(=O)c2cc(C3CC3)nn2-c2cccc(C)c2)[C@H]1NC(C)=O [Compound 26c, (3R,4R,5S)-4-acetamido-5-(3-cyclopropyl-1-(m-tolyl)-1H-pyrazole-5-carboxamido)-3-(pentan-3-yloxy) cyclohex-1-ene-1-carboxylic acid]",31.53
10,"CCC(CC)O[C@@H]1C=C(C(=O)O)C[C@H](NC(=O)c2cc(C3CC3)nn2-c2ccc(Br)cc2)[C@H]1NC(C)=O [Compound 26d, (3R,4R,5S)-4-acetamido-5-(1-(4-bromophenyl)-3-cyclopropyl-1H-pyrazole-5-carboxamido)-3-(pentan-3-yloxy) cyclohex-1-ene-1-carboxylic acid]",37.17
11,"CCC(CC)O[C@@H]1C=C(C(=O)O)C[C@H](N)[C@H]1NC(C)=O [OC, oseltamivir carboxylate, reference compound]",97.46
